Reference: PMC3600304, “Inhibitors of Fatty Acid Synthesis Induce PPARα-Regulated Fatty Acid β-Oxidative Genes: Synergistic Roles of L-FABP and Glucose” (PPAR Research, 2013)

Experiments:
L-FABP [1] = molecular target: T1, L-FABP (Rattus norvegicus, UniProt P02692); assay: Displacement of L-FABP-bound NBD-stearic acid; type: binding
T1 construct: made in house
T1 sequence (P02692 1-127): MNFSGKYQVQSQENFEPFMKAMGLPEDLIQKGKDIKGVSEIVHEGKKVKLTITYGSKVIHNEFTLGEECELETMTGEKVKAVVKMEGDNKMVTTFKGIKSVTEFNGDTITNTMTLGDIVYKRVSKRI
Experimental: Advantage was taken of the fact that NBD-stearic acid bound to L-FABP (two ligand binding sites) as well as SCP-2 (single-ligand binding site) to design a NBD-stearic acid displacement assay that allowed determination of which fatty acid synthesis inhibitors or their CoA thioesters bound to these LCFA/LCFA-CoA binding proteins. Displacement of NBD-stearate from L-FABP and SCP-2 was determined by incubating L-FABP or SCP-2 (25 nM in 10 mM phosphate buffer) with NBD stearate (40 nM) for 12 min to obtain maximal fluorescence, followed by titration with increasing amount of ligand. From the displacement curve, the K i value was calculated as described. All experiments were carried out with a thermostated cuvette to maintain temperature at 24°C using a circulating water bath. ANS displacement assay was performed as described.

[2] = test system: PPARα transcription of CPT1A, CPT2, ACOX1; assay: rtPCR of CPT1A, CPT2, ACOX1 mRNA in wild-type mouse primary hepatocytes; type: cell-based; conditions: inhibitor 10 μg/mL, 5 hr
Experimental: (§1) Mouse hepatocytes were isolated from livers of male wild-type and L-FABP null mice as described. To study the effect of TOFA and C75 at different glucose levels, mouse hepatocytes were cultured overnight with DMEM/F-12 supplemented with 5% FBS. Cells were incubated with glucose-free DMEM supplemented with fatty acid-free BSA (40 μM), 100 nM insulin, 10 nM dexamethasone, and without (no inhibitor) or with the de novo fatty acid synthesis inhibitors C75 or TOFA (10 μg/mL) for 30 min (1 mL/well). Cells were incubated further for 5 hr with 6 or 20 mM glucose without or with the inhibitors.
(§2) Transcription of key enzymes in mitochondrial (CPT1A and CPT2) and peroxisomal (ACOX1) β-oxidation of long chain fatty acid (LCFA) was determined by rtPCR similarly as described. Briefly, the RNeasy mini kit from Qiagen Sciences (MD, USA) was used as per the manufacturer's instructions to isolate total RNA, which was then quantified spectrophotometrically. Quantitative real-time PCR was performed with an ABI PRISM 7000 Sequence Detection System (SDS) from Applied Biosystems (Foster City, CA, USA) to determine relative mRNA expression for CPT1A, CPT2, and ACOX1. The thermal protocol was as follows: 48°C for 30 min, 95°C for 10 min before the first cycle, 95°C for 15 sec, and 60°C for 60 sec, repeated 40 times. TaqMan One-Step Master Mix and Gene Expression Assays for mouse CPT1A (Mm 00550438_m1), CPT2 (Mm 00487202_m1), and ACOX1 (Mm 00443579_m1) were purchased from Applied Biosystems (Life Technologies, Carlsbad, CA, USA). Triplicates of each sample were analyzed with ABI PRISM 7000 SDS software (Applied Biosystems) to determine ΔCt relative to a positive control (18S housekeeping gene). The fold change in the abundance of CPT1A, CPT2, and ACOX1 mRNAs was determined in primary mouse hepatocytes treated with albumin (40 μM) in the absence and presence of lipid synthesis inhibitors (C75, TOFA, 10 μg/mL) in glucose-free DMEM medium supplemented with 100 nM insulin, 10 nM dexamethasone, and either 6 or 20 mM glucose. The comparative 2^−ΔΔCt calculation method was used as described in User Bulletin 2, ABI Prism 7000 SDS (Applied Biosystems), and earlier. Finally, protein levels of liver fatty acid binding protein (L-FABP), sterol carrier protein-2 (SCP-2), acyl CoA binding protein (ACBP), peroxisome proliferator activated receptor (PPARα), liver X receptor-α (LXRα), carbohydrate response element binding protein (ChREBP), and sterol response element binding protein (SREBP) were determined by western blotting as described.

[3] = test system: PPARα transcription of CPT1A, CPT2, ACOX1; assay: rtPCR of CPT1A, CPT2, ACOX1 mRNA in L-FABP (−/−) null mouse primary hepatocytes; type: cell-based; conditions: for PPARα transcription of CPT1A, CPT2, ACOX1 (mRNA): 6 mM glucose; for PPARα transcription of CPT1A, CPT2, ACOX1 (mRNA) / Ability to activate PPARα transcription of CPT1A, CPT2, ACOX1 (mRNA): inhibitor 10 μg/mL, 5 hr
Description: Wild-type mice on a C57BL/6N background purchased from Charles River Laboratories (Wilmington, MA, USA) were obtained from the National Cancer Institute (Frederick Cancer Research and Development Center, Frederick, MD, USA). L-FABP (−/−) null mice were obtained by targeted disruption of the L-FABP gene and backcrossed to C57Bl/6N background to the N10 (99.9% homogeneity) generation. For hepatocyte isolation, livers were collected from male mice aged 3–6 mo. Mouse protocols were approved by the Institutional Animal Care and Use Committee (IACUC) at Texas A&M University. Mice were kept under a constant 12/12 light-dark cycle and had access to food and water ad libitum.
as §1, §2

recombinant rat L-FABP = molecular target: T2, recombinant rat L-FABP (Rattus norvegicus, UniProt P02692); assay: L-FABP secondary structure by circular dichroism (CD); conditions: L-FABP 1 μM, ligand 10 μM
T2 construct: made in house
T2 sequence (P02692 1-127): T1 sequence (P02692 1-127)
Experimental: Circular dichroism (CD) spectra were obtained utilizing a JASCO J-815 CD spectrometer (JASCO Analytical Instruments, Easton, MD, USA). Each sample for CD analysis contained recombinant rat L-FABP (1 μM) in 10 mM potassium phosphate (pH 7.4) with or without ligand (10 μM). Samples were scanned from 190 to 250 nm using the following conditions: step resolution, 1 nm; bandwidth, 2 nm; sensitivity, 10 mdeg; scan rate, 50 nm/min; and time constant, 1 s. For each measurement, 10 scans were averaged, background-subtracted, smoothed using the Means-Movement smoothing method (convolution width, 5) and converted to mean residue molar ellipticity utilizing the Spectra Manager Version 2 software as supplied by the instrument manufacturer (Spectra Analysis Version 2.03.04, Build 5). The percentage composition of α-helices (regular, distorted, total), β-sheets (regular, distorted, total), turns, and unordered structures was determined utilizing the CDPro program as supplied by the instrument manufacturer using the SDP48 reference set (soluble + denatured protein). This program allows the percentage calculation of various secondary structures by three different methods: CDSSTR, CONTIN, and SELCON3. Statistical analysis was performed by one-way analysis of variance (ANOVA) combined with the Newman-Keuls multiple-comparisons posttest (GraphPad Prism Version 3.03, San Diego, CA, USA).

PPARα = conditions: COS7 cells; cited from earlier work
L-FABP [4] = molecular target: T1, L-FABP; assay: L-FABP tyrosine fluorescence quenching; type: binding; conditions: L-FABP 100 nM
Experimental: Tyrosine fluorescence of L-FABP (100 nM) in 10 mM phosphate buffer was monitored by scanning from 290 to 400 nm, with excitation wavelength 280 nm, before and after small increments of added binding ligand. The binding curve was constructed by plotting tyrosine fluorescence intensity at 305 nm versus concentration of the ligand. K d was then calculated as described.

| SMILES | Displacement of NBD-stearic acid bound to L-FABP (in words) (L-FABP [1]) | PPARα transcription of CPT1A, CPT2, ACOX1 (mRNA) ([2]; 6 mM glucose) | PPARα transcription of CPT1A, CPT2, ACOX1 (mRNA) ([2]; 20 mM glucose) | PPARα transcription of CPT1A, CPT2, ACOX1 (mRNA) [3] | Ability to activate PPARα transcription of CPT1A, CPT2, ACOX1 (mRNA) ([3]; 20 mM glucose) | Effect on L-FABP secondary structure (overall) (recombinant rat L-FABP) | Ki (L-FABP [1]; L-FABP 25 nM, NBD stearate 40 nM, 24°C, read-out: K i, displacing L-FABP-bound NBD-stearic acid) [nM] | Fluorescence of L-FABP-bound NBD-stearic acid decreasing to (L-FABP [1]; at 650 nM TOFA) [%] | Decrease of PPARα transcription of CPT1A, CPT2, or ACOX1 ([3]; 20 mM glucose, TOFA 10 μg/mL) [%] | Transactivation of PPARα (PPARα) | Quenching of L-FABP tyrosine emission (in words) (L-FABP [4]) | Kd (L-FABP [4]; 10 mM phosphate buffer, read-out: K d by L-FABP tyrosine quenching (converted)) [nM] | Effect on proportion of all types of β-sheet of L-FABP (recombinant rat L-FABP) | Effect on proportion of α-helix of L-FABP (recombinant rat L-FABP) | Effect on turn structure of L-FABP (recombinant rat L-FABP) | Effect on unordered structure of L-FABP (recombinant rat L-FABP) |
| --- | --- | --- | --- | --- | --- | --- | --- | --- | --- | --- | --- | --- | --- | --- | --- | --- |
| C=C1C(=O)OC(CCCCCCCC)C1C(=O)O (stereo not drawn) [C75, 4-methylene-2-octyl-5-oxotetrahydrofuran-3-carboxylic acid] | weaker | neither TOFA nor C75 significantly altered | induced | lack of effect | abolished | did not alter | – | – | – | – | – | – | – | – | – | – |
| CCCCCCCCCCCCCCOc1ccc(C(=O)O)o1 [TOFA, 5-tetradecyloxy-2-furancarboxylic acid] | – | neither TOFA nor C75 significantly altered | induced | lack of effect | abolished | significantly altered | 66 ± 3 | 40 | ~50 | transactivated | efficiently quenched | 57 | increased | did not alter | decreased | did not alter |
